Test results as given in patent US7622479B2, “Bicyclic derivative, its production and use” (Takeda Pharmaceutical Company Limited, priority 2001, dated 2009).
Marks after values point to notes of the source that are not given here.

Experiments:
[1] = test system: normal human cell fibroblast MRC-5; assay: Cell proliferation suppression test, normal cells MRC-5 (SRB staining); assay type: cell-based; details: MRC5, MRC-5 normal fibroblasts, incubated for 3 or 5 days, SRB protein staining, absorbance 550 nm, read-out: Cell proliferation inhibition (IC50; μM) MRC-5
Description: (§1) 100 μl of a suspension of HER2-expressing SK-BR-3 human breast cancer cells or 100 μl of BT-474 (2,000 cells) or 100 μl (4,000 cells) of a suspension of normal human cell fibroblast MRC-5 was sown in a 96-well microplate and cultured at 37° C. in a 5% carbonic acid gas incubator. On the following day, 100 μl of a solution of the test compound which had previously been diluted 2-fold, was added and the mixture was incubated for 3 or 5 days. The cells were fixed and washed with 5% glutaraldehyde solution and further fixed with 10% trichloroacetic acid solution, after which a 0.4% (W/V) SRB 0.4% (W/V) solution (dissolved in 1% acetic acid) was added to stain the cell protein. After the pigment solution was removed and the plate was washed with 1% acetic acid solution, 100 μl of extract (10 mM tris buffer solution) was added to extract the pigment; absorbance was measured at an absorption wavelength of 550 nm to quantify the amount of cells as protein content.
(§2) Taking the absorbance for the control group, which received no test compound solution, as 100% the ratio of the absorbance for each treatment group was determined, and the compound concentration required to achieve 50% suppression of the residual cell content relative to the control (IC50 value) was calculated.

[2] = test system: BT-474 human cancer cells; assay: Antitumor test in nude mouse model implanted with human cancer cells; assay type: in vivo; details: twice each day, for 14 days, nude BALB/c female mouse, BT-474 subcutaneous, tumor volume change vs Gelucire control
Description: 1×10^7 BT-474 human cancer cells were suspended in Matrigel solution, and the suspension was subcutaneously transplanted to a nude BALB/c female mouse (5 weeks old). In order to enhance the take ratio of the tumor, an estrogen preparation was intramuscularly administered to a hind leg at plantation and 7 days after transplantation.
A Gelucire solution (0.3 or 1 mg/ml) of the compound of the present invention was orally administered at a dosage of 10 ml/kg, twice each day, for 14 days. During the first day and the last day that the administration was carried out, the tumor diameter was measured, and the tumor volume was calculated using the formula: tumor volume=major axis x minor axis x minor axis x(1/2). The T/C (%) was calculated as the ratio of the value obtained by subtracting the tumor volume on the last day of administration from the tumor volume on the first day of administration for the control group (to which only Gelucire was administered) and the value obtained by subtracting the tumor volume on the last day of administration from the tumor volume on the first day of administration for the treatment group.

[3] = test system: HER2-expressing SK-BR-3 human breast cancer cells; assay: Cell proliferation suppression test, SK-BR-3 (SRB staining); assay type: cell-based; details: SK-BR-3 cells, incubated for 3 or 5 days, SRB protein staining, absorbance 550 nm, read-out: Cell proliferation inhibition (IC50; μM) SK-BR-3
Description: as §1, §2

[4] = test system: BT-474 human breast cancer cells; assay: Cell proliferation suppression test, BT-474 (SRB staining); assay type: cell-based; details: BT-474 cells, incubated for 3 or 5 days, SRB protein staining, absorbance 550 nm, read-out: Cell proliferation inhibition (IC50; μM) BT-474
Description: as §1, §2

| Structure (SMILES) | IC50 [1] [µM] | T/C(%) 3 mg/kg ([2]; 3 mg/kg orally) | T/C(%) 10 mg/kg ([2]; 10 mg/kg orally) | IC50 [3] [µM] | IC50 [4] [µM] |
| --- | --- | --- | --- | --- | --- |
| COc1cccc(-c2nc3cc(-c4ccccc4)cnc3[nH]2)c1 [Example 1, 2-(3-methoxyphenyl)-6-phenyl-1H-imidazo[4,5-b]pyridine] | > 25 | 58* % | 31** % | 0.12 | 0.28 |
| COc1ccc(Cc2nc3cc(-c4ccco4)cnc3[nH]2)cc1OC [Example 97, 2-(3,4-dimethoxybenzyl)-6-(2-furyl)-1H-imidazo[4,5-b]pyridine] | > 25 |  |  | 0.94 | 0.49 |
| Clc1ccc(Cc2nc3cc(-c4ccco4)cnc3[nH]2)cc1 [Example 113, 2-(4-chlorobenzyl)-6-(2-furyl)-1H-imidazo[4,5-b]pyridine] | ≥ 25 |  |  | 0.22 | 0.25 |
| COc1cccc(-c2nc3ncc(-c4ccccc4)cc3n2Cc2ccccc2O)c1 [Example 157, 2-[[2-(3-methoxyphenyl)-6-phenyl-1H-imidazo[4,5-b]pyridin-1-yl]methyl]phenol] | > 25 |  |  | 0.23 | 0.19 |
| COc1cccc(-c2nc3ncc(-c4ccccc4)cc3n2CC2CC2)c1 [Example 202, 1-(cyclopropylmethyl)-2-(3-methoxyphenyl)-6-phenyl-1H-imidazo[4,5-b]pyridine] | 21 |  |  | 0.55 | 1.1 |
| Fc1ccc(/C=C/c2nc3cc(-c4ccco4)ccc3o2)c(F)c1 [Example 219, 2-[(E)-2-(2,4-difluorophenyl)ethenyl]-5-(2-furyl)benzoxazole] | > 25 |  |  | 0.14 | 0.83 |
